# Measurements: ChEMBL document CHEMBL3885861, “Open TG-GATES”
# Organism: Rattus norvegicus
# Assay: Open TG-GATES - Regimen: Daily Repeat
# Format: toxicity, organism-based, Sprague-Dawley
# Set-up: regimen Daily Repeat, gender Male, age 6 weeks
# Details: in vivo, iv, route intravenous injection; for gamma-GTP / ALP / ALT / AST / BUN / CRE / DBIL / GLC / IP / K / LDH / PL / RALB / TBIL / TC / TP / TG: tissue Plasma; for APTT / Bas / Eos / Fbg / Hb / Ht / Lym / MCH / MCHC / Mono / Neu / PT / Plat / RBC / Ret / WBC / MCV: tissue Blood; for KIDNEY_L / KIDNEY_R / KIDNEY_TOTAL: tissue Kidney; for LIVER: tissue Liver
# [1] = 30 mg/kg, 72 h, dose level Middle, time 3 day
# [2] = 30 mg/kg, […], dose level Middle, time 7 day
# [3] = 30 mg/kg, […], dose level Middle, time 14 day
# [4] = 30 mg/kg, […], dose level Middle, time 28 day
# [5] = 100 mg/kg, 72 h, dose level High, time 3 day
# [6] = 100 mg/kg, […], dose level High, time 7 day
# [7] = 100 mg/kg, […], dose level High, time 14 day
# [8] = 100 mg/kg, […], dose level High, time 28 day
sequence,measurement,setting,value
GENTAMICIN,gamma-GTP,"10 mg/kg, […], dose level Low, time 28 day",2 IU/L
same,TERMINAL_BW,[1],231.1 g
same,APTT,[1],22 s
same,Bas,[1],0%
same,Eos,[1],1%
same,Fbg,[1],292.8 mg/dL
same,Hb,[1],12.8 g/dL
same,Ht,[1],37.4%
same,Lym,[1],75.4%
same,MCH,[1],21 pg
same,MCHC,[1],34.2%
same,Mono,[1],3.2%
same,Neu,[1],19.8%
same,PT,[1],16.5 s
same,Plat,[1],116.2 x10_4/uL
same,RBC,[1],608.6 x10_4/ul
same,Ret,[1],5.4%
same,WBC,[1],99.7 x10_2/uL
same,KIDNEY_L,[1],1 g
same,KIDNEY_R,[1],1 g
same,KIDNEY_TOTAL,[1],2 g
same,ALP,[1],1568.4 IU/L
same,ALT,[1],38.4 IU/L
same,AST,[1],70.6 IU/L
same,BUN,[1],19 mg/dL
same,CRE,[1],0.2 mg/dL
same,DBIL,[1],0 mg/dL
same,GLC,[1],170.6 mg/dL
same,IP,[1],6.8 mg/dL
same,K,[1],4.7 meq/L
same,LDH,[1],175 IU/L
same,PL,[1],147.8 mg/dL
same,RALB,[1],3 g/dL
same,TBIL,[1],0.008 mg/dL
same,TC,[1],69.2 mg/dL
same,TP,[1],5.4 g/dL
same,gamma-GTP,[1],1.8 IU/L
same,TERMINAL_BW,[2],256.1 g
same,TERMINAL_BW,[3],289.4 g
same,TERMINAL_BW,[4],356.8 g
same,APTT,[2],24.3 s
same,Bas,[2],0%
same,Eos,[2],1.2%
same,Fbg,[2],303.4 mg/dL
same,Ht,[2],39%
same,Lym,[2],75%
same,MCH,[2],21 pg
same,MCHC,[2],34.7%
same,MCV,[2],60.6 fL
same,Mono,[2],4%
same,PT,[2],15.9 s
same,Plat,[2],111.1 x10_4/uL
same,RBC,[2],644.4 x10_4/ul
same,Ret,[2],4.1%
same,WBC,[2],106.4 x10_2/uL
same,APTT,[3],22.8 s
same,Bas,[3],0%
same,Eos,[3],0.8%
same,Fbg,[3],296.4 mg/dL
same,Ht,[3],40.3%
same,Lym,[3],81.4%
same,MCHC,[3],35.7%
same,MCV,[3],58.2 fL
same,Mono,[3],2.2%
same,Plat,[3],106 x10_4/uL
same,RBC,[3],693.6 x10_4/ul
same,Ret,[3],3.2%
same,WBC,[3],131.7 x10_2/uL
same,APTT,[4],23.3 s
same,Bas,[4],0%
same,Eos,[4],0.8%
same,Fbg,[4],308 mg/dL
same,Hb,[4],15.3 g/dL
same,Ht,[4],42.9%
same,Lym,[4],80.4%
same,MCH,[4],19.2 pg
same,MCHC,[4],35.7%
same,MCV,[4],53.7 fL
same,Mono,[4],2.4%
same,Plat,[4],107.2 x10_4/uL
same,RBC,[4],799 x10_4/ul
same,Ret,[4],1.8%
same,WBC,[4],106 x10_2/uL
same,KIDNEY_L,[2],1.1 g
same,KIDNEY_R,[2],1.1 g
same,KIDNEY_TOTAL,[2],2.1 g
same,KIDNEY_L,[3],1.2 g
same,KIDNEY_R,[3],1.2 g
same,KIDNEY_TOTAL,[3],2.4 g
same,KIDNEY_L,[4],1.5 g
same,KIDNEY_R,[4],1.6 g
same,KIDNEY_TOTAL,[4],3.1 g
same,LIVER,[2],10.8 g
same,LIVER,[3],10.8 g
same,LIVER,[4],12.3 g
same,ALP,[2],1481.6 IU/L
same,ALT,[2],40.6 IU/L
same,BUN,[2],17 mg/dL
same,CRE,[2],0.2 mg/dL
same,DBIL,[2],0 mg/dL
same,GLC,[2],174.8 mg/dL
same,IP,[2],6.1 mg/dL
same,K,[2],4.5 meq/L
same,LDH,[2],152.6 IU/L
same,PL,[2],146.8 mg/dL
same,RALB,[2],3 g/dL
same,TBIL,[2],0.006 mg/dL
same,TC,[2],72 mg/dL
same,TG,[2],131.4 mg/dL
same,TP,[2],5.6 g/dL
same,gamma-GTP,[2],1.6 IU/L
same,ALP,[3],1265.2 IU/L
same,ALT,[3],36.8 IU/L
same,AST,[3],67.6 IU/L
same,CRE,[3],0.2 mg/dL
same,DBIL,[3],0 mg/dL
same,GLC,[3],176.4 mg/dL
same,IP,[3],5.9 mg/dL
same,K,[3],4.3 meq/L
same,LDH,[3],144.8 IU/L
same,PL,[3],140.2 mg/dL
same,RALB,[3],3 g/dL
same,TBIL,[3],0.008 mg/dL
same,TC,[3],68.6 mg/dL
same,TG,[3],114 mg/dL
same,TP,[3],5.7 g/dL
same,gamma-GTP,[3],1.8 IU/L
same,ALP,[4],959 IU/L
same,ALT,[4],31 IU/L
same,CRE,[4],0.3 mg/dL
same,DBIL,[4],0.002 mg/dL
same,GLC,[4],176.4 mg/dL
same,IP,[4],5.6 mg/dL
same,K,[4],4.2 meq/L
same,LDH,[4],109.8 IU/L
same,PL,[4],130 mg/dL
same,RALB,[4],3 g/dL
same,TBIL,[4],0.01 mg/dL
same,TC,[4],68.4 mg/dL
same,TG,[4],103 mg/dL
same,TP,[4],5.8 g/dL
same,gamma-GTP,[4],2.2 IU/L
same,TERMINAL_BW,[5],229.2 g
same,APTT,[5],22 s
same,Bas,[5],0%
same,Eos,[5],1%
same,Fbg,[5],294.4 mg/dL
same,Ht,[5],38.2%
same,Lym,[5],80.8%
same,MCH,[5],21 pg
same,MCHC,[5],34.3%
same,MCV,[5],61.1 fL
same,Mono,[5],3.8%
same,Neu,[5],13%
same,PT,[5],16.5 s
same,Plat,[5],115 x10_4/uL
same,RBC,[5],625.8 x10_4/ul
same,Ret,[5],4.8%
same,WBC,[5],83.9 x10_2/uL
same,KIDNEY_L,[5],1 g
same,KIDNEY_R,[5],1 g
same,KIDNEY_TOTAL,[5],2 g
same,LIVER,[5],10 g
same,ALP,[5],1437 IU/L
same,AST,[5],67.4 IU/L
same,CRE,[5],0.2 mg/dL
same,DBIL,[5],0 mg/dL
same,GLC,[5],170 mg/dL
same,IP,[5],6.8 mg/dL
same,K,[5],4.7 meq/L
same,LDH,[5],137.2 IU/L
same,PL,[5],131.4 mg/dL
same,RALB,[5],3 g/dL
same,TBIL,[5],0.014 mg/dL
same,TC,[5],64.8 mg/dL
same,TG,[5],100 mg/dL
same,TP,[5],5.5 g/dL
same,gamma-GTP,[5],1.4 IU/L
same,TERMINAL_BW,[6],262.4 g
same,TERMINAL_BW,[7],275.2 g
same,TERMINAL_BW,[8],315.6 g
same,APTT,[6],24.3 s
same,Bas,[6],0%
same,Eos,[6],1.2%
same,Fbg,[6],314.2 mg/dL
same,Lym,[6],77.6%
same,MCHC,[6],34.5%
same,MCV,[6],60.6 fL
same,Mono,[6],4.2%
same,Plat,[6],106.7 x10_4/uL
same,RBC,[6],646.4 x10_4/ul
same,Ret,[6],4.3%
same,WBC,[6],117.3 x10_2/uL
same,APTT,[7],23.3 s
same,Bas,[7],0%
same,Eos,[7],1%
same,Fbg,[7],320.8 mg/dL
same,Lym,[7],83%
same,MCH,[7],21.1 pg
same,MCHC,[7],36.2%
same,MCV,[7],58.1 fL
same,Mono,[7],3%
same,PT,[7],16.4 s
same,Plat,[7],114.3 x10_4/uL
same,RBC,[7],701.8 x10_4/ul
same,Ret,[7],1.8%
same,WBC,[7],106.6 x10_2/uL
same,APTT,[8],23.9 s
same,Bas,[8],0%
same,Eos,[8],1.2%
same,Fbg,[8],282.2 mg/dL
same,Hb,[8],14.7 g/dL
same,Ht,[8],40.7%
same,Lym,[8],83.5%
same,MCH,[8],19 pg
same,MCHC,[8],36.1%
same,MCV,[8],52.6 fL
same,Mono,[8],2.2%
same,Neu,[8],11.5%
same,PT,[8],16.5 s
same,Plat,[8],118.3 x10_4/uL
same,RBC,[8],773 x10_4/ul
same,Ret,[8],1.3%
same,WBC,[8],112.9 x10_2/uL
same,KIDNEY_L,[6],1.2 g
same,KIDNEY_R,[6],1.2 g
same,KIDNEY_TOTAL,[6],2.5 g
same,KIDNEY_L,[7],1.5 g
same,KIDNEY_R,[7],1.5 g
same,KIDNEY_TOTAL,[7],3 g
same,KIDNEY_L,[8],1.6 g
same,KIDNEY_R,[8],1.7 g
same,KIDNEY_TOTAL,[8],3.3 g
same,LIVER,[6],10.9 g
same,LIVER,[7],10.2 g
same,ALP,[6],1249 IU/L
same,ALT,[6],39.8 IU/L
same,AST,[6],73 IU/L
same,CRE,[6],0.2 mg/dL
same,DBIL,[6],0 mg/dL
same,GLC,[6],182.6 mg/dL
same,IP,[6],6 mg/dL
same,K,[6],4.6 meq/L
same,LDH,[6],158.8 IU/L
same,PL,[6],139.8 mg/dL
same,RALB,[6],3 g/dL
same,TBIL,[6],0.004 mg/dL
same,TC,[6],71 mg/dL
same,TG,[6],91.4 mg/dL
same,TP,[6],5.6 g/dL
same,gamma-GTP,[6],2 IU/L
same,ALP,[7],1114.5 IU/L
same,ALT,[7],33.5 IU/L
same,AST,[7],71.8 IU/L
same,BUN,[7],20 mg/dL
same,CRE,[7],0.3 mg/dL
same,DBIL,[7],0 mg/dL
same,IP,[7],6 mg/dL
same,K,[7],4.2 meq/L
same,PL,[7],148.8 mg/dL
same,RALB,[7],3.1 g/dL
same,TBIL,[7],0.015 mg/dL
same,TC,[7],81.8 mg/dL
same,TG,[7],98.2 mg/dL
same,TP,[7],5.7 g/dL
same,gamma-GTP,[7],2.5 IU/L
same,ALP,[8],662.5 IU/L
same,AST,[8],67 IU/L
same,BUN,[8],18 mg/dL
same,CRE,[8],0.3 mg/dL
same,DBIL,[8],0 mg/dL
same,IP,[8],5.8 mg/dL
same,K,[8],3.6 meq/L
same,LDH,[8],109.2 IU/L
same,PL,[8],112 mg/dL
same,RALB,[8],3.1 g/dL
same,TBIL,[8],0.03 mg/dL
same,TC,[8],67 mg/dL
same,TG,[8],40 mg/dL
same,TP,[8],5.9 g/dL
same,gamma-GTP,[8],2.5 IU/L
